Key:
[1] = tested on: mice
[2] = tested on: Ac-PGP; assay: Loss of function of Ac-PGP by treatment with RTR in vivo; design: species or system mouse
[3] = tested on: C57BL/6 mouse pups; assay: In vivo (mouse) dysbiosis model of chronic lung disease, LPS-treated pups
[4] = tested on: probiotic strains RSB11, RSB12, or RSB13; assay: Culture growth of probiotic strains with herbal extracts or Vitamin D; type: cell-based, Lactobacillus; conditions: number of colonies per plate; FIG. 11

Question: Which NE concentrations ([1]; BALF, normoxia and noxious stimuli, P<0.05, FIG. 8C) does the source give for “N-acetyl-Proline-Glycine-Proline [Ac-PGP]” here?
Answer: increased

Question: And the MPO concentration ([1]; ELISA, normoxia and noxious stimuli, P<0.05, FIG. 8B)?
Answer: increased

Question: What about the chronic lung disease ([1]; gain of function, in vivo, FIG. 8) of the same substance?
Answer: causes chronic lung disease

Question: What about the RAC counts ([1]; normoxia and noxious stimuli, P<0.05, FIG. 8A) of the same substance?
Answer: decreased

Question: And the “right ventricular hypertrophy (RVH)” value ([1]; normoxia and noxious stimuli, P<0.05, FIG. 8D)?
Answer: increased

Question: How did the chronic lung disease ([2]; in vivo, FIG. 9) turn out when Arginine-Threonine-Arginine [RTR] was run?
Answer: protective

Question: What about the RAC ([2]; noxious stimuli, LPS+RTR vs LPS alone, P<0.05, FIG. 9B) of the same substance?
Answer: significantly higher

Question: What about the MPO concentrations ([2]; noxious stimuli, LPS+RTR vs LPS alone, P<0.05, FIG. 9C) of the same substance?
Answer: significantly lower

Question: What about the RVH ([2]; noxious stimuli, LPS+RTR vs LPS alone, P<0.05, FIG. 9D) of the same substance?
Answer: significantly less severe

Question: Which Ac-PGP levels ([3]; BALF, by HPLC, vs controls, P<0.05, FIG. 7E) does the source give for lipopolysaccharide [LPS] here?
Answer: significantly increased

Question: And the “myeloperoxidase (MPO) levels” value ([3]; BALF, vs controls, P<0.05, FIG. 7C)?
Answer: significantly increased

Question: And the “neutrophil elastase (NE) levels” value ([3]; BALF, vs controls, P<0.05, FIG. 7D)?
Answer: significantly increased

Question: What about the lung tissue structure ([3]; LPS-treated C57BL/6 mouse pups, FIG. 7A) of the same substance?
Answer: alveolar hypoplasia and simplification

Question: What about the “radial alveolar counts (RAC)” value ([3]; vs controls, P<0.05, FIG. 7B) of the same substance?
Answer: significantly decreased

Question: Which “culture growth of probiotic strains RSB11, RSB12, RSB13” value [4] does the source give for Vitamin D here?
Answer: do not have an inhibitory effect
